# Assay results as given in PubChem BioAssay (NCI).
#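 96-well plates; 48 h exposure; 5 concentrations. Endpoints by linear interpolation between flanking doses. Not reached: highest tested concentration assigned. TGI: total growth inhibition.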
# Legend:
# Test in all cases: NCI-60 cell line screen, 48 h
# [1] = tested on: M19-MEL melanoma
# [2] = tested on: HCT-116 colon
# [3] = tested on: XF 498 CNS
# [4] = tested on: HOP-92 NSCLC
# [5] = tested on: NCI-H522 lung
# [6] = tested on: RPMI-8226 leukemia
# [7] = tested on: SF-295 CNS
# [8] = tested on: HOP-18 NSCLC
# [9] = tested on: EKVX NSCLC
# [10] = tested on: KM12 colon
# [11] = tested on: K-562 leukemia
# [12] = tested on: COLO 205 colon
# [13] = tested on: RXF-631 renal
# [14] = tested on: UACC-257 melanoma
# [15] = tested on: HT29 colon
# [16] = tested on: UO-31 renal
# [17] = tested on: SK-MEL-2 melanoma
# [18] = tested on: SNB-78 CNS
# [19] = tested on: DMS 273 small cell lung
# [20] = tested on: NCI-H460 lung
# [21] = tested on: LXFL 529 NSCLC
# [22] = tested on: 786-0 renal
# [23] = tested on: LOX IMVI melanoma
# [24] = tested on: SW-620 colon
# [25] = tested on: A498 renal
# [26] = tested on: ACHN renal
# [27] = tested on: OVCAR-8 ovarian
# [28] = tested on: IGROV1 ovarian
# [29] = tested on: RXF 393 renal
# [30] = tested on: SNB-75 CNS
# [31] = tested on: HL-60(TB) leukemia
# [32] = tested on: OVCAR-4 ovarian
# [33] = tested on: MALME-3M melanoma
# [34] = tested on: SK-MEL-28 melanoma
# [35] = tested on: M14 melanoma
# [36] = tested on: SNB-19 CNS
# [37] = tested on: A549 NSCLC
# [38] = tested on: DMS 114 small cell lung
# [39] = tested on: UACC-62 melanoma
# [40] = tested on: SF-268 CNS
# [41] = tested on: MOLT-4 leukemia
# [42] = tested on: NCI-H23 lung
# [43] = tested on: HCT-15 colon
# [44] = tested on: SF-539 CNS
# [45] = tested on: TK-10 renal
# [46] = tested on: KM20L2 colon
# [47] = tested on: SN12C renal
# [48] = tested on: OVCAR-5 ovarian
# [49] = tested on: SK-OV-3 ovarian
# [50] = tested on: OVCAR-3 ovarian
# [51] = tested on: HOP-62 NSCLC
# [52] = tested on: CAKI-1 renal
# [53] = tested on: CCRF-CEM leukemia
# [54] = tested on: DLD-1 colon
# [55] = tested on: HCC-2998 colon
# [56] = tested on: SK-MEL-5 melanoma
smiles,measurement,setting,value
O/N=C1/C(=C/c2ccccc2)CCCC1C(NO)c1ccccc1 (stereo not drawn),TGI,[1],> 100 µM
same,TGI,[2],> 100 µM
same,TGI,[3],99.2 µM
same,TGI,[4],> 100 µM
same,TGI,[5],> 100 µM
same,TGI,[6],> 100 µM
same,TGI,[7],> 100 µM
same,TGI,[8],> 100 µM
same,TGI,[9],> 100 µM
same,TGI,[10],> 100 µM
same,TGI,[11],> 100 µM
same,TGI,[12],> 100 µM
same,TGI,[13],> 100 µM
same,TGI,[14],> 100 µM
same,TGI,[15],> 100 µM
same,TGI,[16],> 100 µM
same,TGI,[17],> 100 µM
same,TGI,[18],> 100 µM
same,TGI,[19],> 100 µM
same,TGI,[20],> 100 µM
same,TGI,[21],> 100 µM
same,TGI,[22],> 100 µM
same,TGI,[23],> 100 µM
same,TGI,[24],> 100 µM
same,TGI,[25],> 100 µM
same,TGI,[26],> 100 µM
same,TGI,[27],> 100 µM
same,TGI,[28],> 100 µM
same,TGI,[29],> 100 µM
same,TGI,[30],> 100 µM
same,TGI,[31],5.03 µM
same,TGI,[32],> 100 µM
same,TGI,[33],> 100 µM
same,TGI,[34],> 100 µM
same,TGI,[35],> 100 µM
same,TGI,[36],> 100 µM
same,TGI,[37],> 100 µM
same,TGI,[38],> 100 µM
same,TGI,[39],> 100 µM
same,TGI,[40],> 100 µM
same,TGI,[41],90.8 µM
same,TGI,[42],> 100 µM
same,TGI,[43],> 100 µM
same,TGI,[44],> 100 µM
same,TGI,[45],> 100 µM
same,TGI,[46],> 100 µM
same,TGI,[47],> 100 µM
same,TGI,[48],> 100 µM
same,TGI,[49],> 100 µM
same,TGI,[50],> 100 µM
O=C(O)C1=C(Cl)c2ccccc2S1(=O)=O,TGI,[51],> 100 µM
same,TGI,[1],> 100 µM
same,TGI,[3],> 100 µM
same,TGI,[4],> 100 µM
same,TGI,[5],40.7 µM
same,TGI,[6],> 100 µM
same,TGI,[7],> 100 µM
same,TGI,[52],> 100 µM
same,TGI,[9],> 100 µM
same,TGI,[10],> 100 µM
same,TGI,[11],> 100 µM
same,TGI,[12],> 100 µM
same,TGI,[13],> 100 µM
same,TGI,[14],> 100 µM
same,TGI,[16],> 100 µM
same,TGI,[17],> 100 µM
same,TGI,[18],> 100 µM
same,TGI,[20],> 100 µM
same,TGI,[21],> 100 µM
same,TGI,[22],> 100 µM
same,TGI,[23],> 100 µM
same,TGI,[24],> 100 µM
same,TGI,[27],> 100 µM
same,TGI,[28],> 100 µM
same,TGI,[29],> 100 µM
same,TGI,[30],> 100 µM
same,TGI,[53],> 100 µM
same,TGI,[31],> 100 µM
same,TGI,[54],> 100 µM
same,TGI,[55],> 100 µM
same,TGI,[32],> 100 µM
same,TGI,[33],> 100 µM
same,TGI,[34],> 100 µM
same,TGI,[35],> 100 µM
same,TGI,[36],> 100 µM
same,TGI,[37],> 100 µM
same,TGI,[38],> 100 µM
same,TGI,[39],> 100 µM
same,TGI,[40],> 100 µM
same,TGI,[41],> 100 µM
same,TGI,[42],> 100 µM
same,TGI,[43],> 100 µM
same,TGI,[45],> 100 µM
same,TGI,[46],> 100 µM
same,TGI,[56],> 100 µM
same,TGI,[47],> 100 µM
same,TGI,[48],> 100 µM
same,TGI,[49],> 100 µM
